US11413278B2, “Compounds and methods for promoting stress resistance” (priority 2015, dated 2022)
Read-outs that look alike come from different tables or passages of the source.

Columns and labels:
WI-38 cells [1] = tested on: WI-38 cells
Protocol: WI-38 cells were seeded on 384-well plates for 24 hrs and then incubated with small molecules for 24 hrs. […] Images were collected on an INCell Analyzer 2000 (GE) and analyzed with the Developer software.

[2] = tested on: PC12 cells expressing poly(Q)103-Htt-EGFP; test: Poly(Q) toxicity & viability analysis (cellular model of Huntington's disease); assay type: cell-based, rat; conditions: for M = Huntington's poly-Q toxicity attenuation: score; for K = Huntington's poly-Q toxicity attenuation: summary score
Protocol: Viability assays were performed as described before (Aiken et al., 2004). PC12 cells that stably express the inducible poly(Q)103-Htt-EGFP were grown in culture. […] Cell viability was analyzed 48 hrs later by measuring ATP content with CellTiter-Glo.
Toxic protein aggregation is a key feature of many age-related neurodegenerative diseases, including Alzheimer's and Huntington's disease (Caughey and Lansbury, 2003; Ross and Poirier, 2004). A number of animal models (Phillips et al., 2009) and cell models (Schlachetzki et al., 2013) have been established to study these diseases. For this purpose, PC12 rat pheochromocytoma cells display neuronal features and produce neurotransmitters and have been used extensively to study neuronal phenotypes, including synaptic transmission and neurological diseases. […] In this model, induced expression of poly(Q)103-Htt-EGFP could lead to the formation of aggregates and exert substantial toxicity in cells.

[3] = Summary score for characterization of 38 core set hits; conditions: for D = Triple resistant: 2-point score, multiplex resistance (cadmium, MMS, H2O2); for S = Sum of Negative scores: human; for C = H2O2- & Cd-resistant: score, resistance to both H2O2 and cadmium
Protocol: 38 “core set” small molecules are listed and are assigned a score, based on the result for each individual characterization. From our small molecule screen for H2O2-resistance, we isolated 61 top hits. […] Specifically, a 2-point score was assigned to the most well-known and prominent longevity-related phenotypes, such as multiplex resistance, activation of FOXO3 and/or NRF2, and down-regulation of mTOR. Small molecules were also analyzed for their ability to extend C. elegans' lifespan in 4 to 6 independent trials, and the lifespan score scale is from 0 to 2: 0 for no obvious effects, 1 for lifespan extension observed in 2 trials, 2 for observed in more than 2 trials. Certain molecules appeared to have DNA-damaging effects and/or potential cell-toxicity in cultured human cells, and they receive a negative point.

WI-38 cells [4] = test: Propidium iodide (PI) cell-death imaging upon H2O2 stress; assay type: cell-based, human; conditions: for Assay 7: H2O2-resistant, at 10 uM, validated by propidium iodide (PI) cell-death imaging: w/H2O2, 3 hrs/4 hrs/5 hrs, YES/NO; for cytotoxicity at 10 µM: Homo sapiens, WI-38
[5] = tested on: human dermal fibroblast (HDF) primary cells; test: H2O2-resistance in primary human dermal fibroblasts; assay type: cell-based; conditions: for fold induction at 10 µM: Homo sapiens; for Assay 6: H2O2-resistant, at 10 uM, human dermal fibroblast (HDF) primary cells: YES/NO
human PARP1 = target: T1, human PARP1 (Homo sapiens, UniProt P09874); test: PARP inhibitor assay (HT Fluorescent Homogeneous PARP Inhibition Assay Kit); assay type: biochemical; conditions: score
T1 construct: purchased Trevigen
Protocol: (§1) The assay was performed with the HT Fluorescent Homogeneous PARP Inhibition Assay Kit (Trevigen), following manufacturer's instructions. Briefly, nicotinamide adenine dinucleotide, human PARP1 and activated-DNA solution was added onto a 96-well plate. 54 repurchased small molecules, at 10 μM final concentration, were introduced onto the 96-well assay plate and incubated in a humid chamber at room temperature for 30 min in dark. Cycling mixture, with resazurin and cycling enzyme diaphorase, was then added and incubated further for 1 hr in dark. Reaction was terminated by adding the stopping buffer.
as §1, with “(Trevegen),” for “(Trevigen),”, “stopped” for “terminated”

WI-38 cells [6] = test: CdCl2 (cadmium) resistance assay; assay type: cell-based, human; conditions: for fold induction at 10 µM: Homo sapiens, 12 h, normalized ATP measurement; for Assay 4: H2O2- & Cd-resistant / Assay 2: Cadmium-resistant: YES/NO; for Assay 2: Cadmium-resistant: * indicates partial
How it was run: (§2)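 Resistance to CdCl2 or MMS stress (12 h exposure) was scored in WI-38 fibroblasts pretreated with compound at 0.25–20 μM final, five doses, technical triplicates. MMS plates had compound added 24 h before MMS, after a shift to serum-free DMEM+2% BSA. Significance came from a global variance t-test over two independent runs.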

WI-38 cells [7] = test: MMS resistance assay; assay type: cell-based, human; conditions: for fold induction at 10 µM: Homo sapiens, 12 h, normalized ATP measurement
How it was run: as §2

[8] = H2O2 3 hrs, 10 uM, n = 6, negative control 5.44% ± 0.79%, read-out: Percentage of propidium iodide-positive dead cells (under H2O2 stress treatment), 3 hrs
[9] = H2O2 4 hrs, 10 uM, n = 6, negative control 16.81% ± 1.42%, read-out: Percentage of propidium iodide-positive dead cells (under H2O2 stress treatment), 4 hrs
[10] = H2O2 5 hrs, 10 uM, n = 6, negative control 22.50% ± 1.53%, read-out: Percentage of propidium iodide-positive dead cells (under H2O2 stress treatment), 5 hrs
[11] = pre-treatment at 10 uM, 3.5 hours of H2O2, DMSO control 27.4% ± 6.5%, */**/*** = reduced by one/two/three standard deviations, read-out: Percentage of propidium iodide-positive dead cells (under H2O2 stress treatment), at 10 uM
[12] = Experiment 1, HDF cells, read-out: Experiment 1, HDF cells (under H2O2 stress treatment), at 10 uM (fold change)
[13] = Experiment 2, HDF cells, read-out: Experiment 2, HDF cells (under H2O2 stress treatment), at 10 uM (fold change)
[14] = score in summary of 38 core set hits
[15] = Exp. 1, WI-38 cells, read-out: Exp. 1, under Cd2Cl2 stress treatment, at 10 uM (fold change)
[16] = Exp. 2, WI-38 cells, read-out: Exp. 2, under Cd2Cl2 stress treatment, at 10 uM (fold change)
[17] = Exp. 1, WI-38 cells, read-out: Exp. 1, under MMS stress treatment, at 10 uM (fold change)
[18] = Exp. 2, WI-38 cells, read-out: Exp. 2, under MMS stress treatment, at 10 uM (fold change)

T1 sequence (P09874 whole entry): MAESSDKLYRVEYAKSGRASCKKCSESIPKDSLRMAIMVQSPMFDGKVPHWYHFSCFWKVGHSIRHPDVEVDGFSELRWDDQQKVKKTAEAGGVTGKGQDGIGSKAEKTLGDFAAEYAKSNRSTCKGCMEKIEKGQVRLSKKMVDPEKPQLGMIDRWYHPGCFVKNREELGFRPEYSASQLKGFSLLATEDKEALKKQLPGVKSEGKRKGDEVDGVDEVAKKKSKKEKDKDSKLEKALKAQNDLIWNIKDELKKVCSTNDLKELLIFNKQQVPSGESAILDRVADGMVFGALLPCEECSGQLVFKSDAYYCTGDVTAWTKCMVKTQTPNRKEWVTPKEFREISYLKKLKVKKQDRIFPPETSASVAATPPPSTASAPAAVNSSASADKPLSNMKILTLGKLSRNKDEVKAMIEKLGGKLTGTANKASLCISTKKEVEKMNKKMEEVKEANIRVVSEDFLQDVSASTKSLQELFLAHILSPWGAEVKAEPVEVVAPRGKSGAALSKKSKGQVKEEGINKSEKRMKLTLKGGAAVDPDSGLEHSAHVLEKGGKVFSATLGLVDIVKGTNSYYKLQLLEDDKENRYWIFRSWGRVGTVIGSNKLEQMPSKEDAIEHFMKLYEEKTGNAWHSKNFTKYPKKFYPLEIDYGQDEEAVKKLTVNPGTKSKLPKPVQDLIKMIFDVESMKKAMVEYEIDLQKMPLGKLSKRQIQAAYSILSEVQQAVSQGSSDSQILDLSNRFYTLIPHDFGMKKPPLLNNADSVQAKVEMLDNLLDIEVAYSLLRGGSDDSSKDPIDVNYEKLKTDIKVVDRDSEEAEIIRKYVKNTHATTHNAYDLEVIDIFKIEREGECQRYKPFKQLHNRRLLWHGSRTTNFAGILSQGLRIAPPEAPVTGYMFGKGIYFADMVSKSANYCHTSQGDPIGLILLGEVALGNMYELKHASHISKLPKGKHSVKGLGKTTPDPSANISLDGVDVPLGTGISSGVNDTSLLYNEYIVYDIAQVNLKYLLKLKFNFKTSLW

Compound: N=C1S/C(=C\c2cn(-c3ccccc3)nc2-c2cccs2)C(=O)N1c1nccs1 [Gr-6C]
- Percentage of propidium iodide-positive dead cells (no H2O2 stress treatment), at 10 uM (WI-38 cells [1]; no H2O2 stress, 10 uM, negative control 0.41% ± 0.23%): 0.66% ± 0.26%,
- M = Huntington's poly-Q toxicity attenuation [2]: 0
- K = Huntington's poly-Q toxicity attenuation [2]: 0
- D = Triple resistant [3]: 0
- S = Sum of Negative scores [3]: 2
- C = H2O2- & Cd-resistant [3]: 0
- Assay 7: H2O2-resistant, at 10 uM, validated by propidium iodide (PI) cell-death imaging (WI-38 cells [4]; 10 uM): YES
- cytotoxicity at 10 µM (WI-38 cells [4]; [8]): 1.17%
- cytotoxicity at 10 µM (WI-38 cells [4]; [9]): 1.39%
- cytotoxicity at 10 µM (WI-38 cells [4]; [10]): 6.12%
- cytotoxicity at 10 µM (WI-38 cells [4]; [11]): 7.9%
- fold induction at 10 µM [5, 12]: 0.01
- fold induction at 10 µM [5, 13]: 50.6
- Assay 6: H2O2-resistant, at 10 uM, human dermal fibroblast (HDF) primary cells [5]: YES
- L = PARP inhibition (human PARP1): 0
- A = Cadmium resistant (WI-38 cells [6]; [14]): 0
- A = Cadmium resistant (WI-38 cells [6]; summary score): 0
- C = H2O2- & Cd-resistant (WI-38 cells [6]; summary score): 0
- B = MMS resistant (WI-38 cells [7]; [14]): 0
- B = MMS resistant (WI-38 cells [7]; summary score): 0
- D = Triple resistant (WI-38 cells [7]; summary score): 0

Compound: O=C(NCc1cccnc1)/C(=C\c1cccc(Oc2ccccc2)c1)S(=O)(=O)c1ccccc1 [Gr-7A]
- M = Huntington's poly-Q toxicity attenuation [2]: 0
- K = Huntington's poly-Q toxicity attenuation [2]: 0
- D = Triple resistant [3]: 0
- S = Sum of Negative scores [3]: 1
- C = H2O2- & Cd-resistant [3]: 0
- Assay 7: H2O2-resistant, at 10 uM, validated by propidium iodide (PI) cell-death imaging (WI-38 cells [4]; 10 uM): YES
- cytotoxicity at 10 µM (WI-38 cells [4]; [8]): 2.78%
- cytotoxicity at 10 µM (WI-38 cells [4]; [9]): 2.32%
- cytotoxicity at 10 µM (WI-38 cells [4]; [10]): 3.52%
- cytotoxicity at 10 µM (WI-38 cells [4]; [11]): 9.9%
- fold induction at 10 µM [5, 12]: 1.2
- fold induction at 10 µM [5, 13]: 4.11
- Assay 6: H2O2-resistant, at 10 uM, human dermal fibroblast (HDF) primary cells [5]: YES
- L = PARP inhibition (human PARP1): 0
- fold induction at 10 µM (WI-38 cells [6]; [15]): 0.07
- fold induction at 10 µM (WI-38 cells [6]; [16]): 0.14
- Assay 4: H2O2- & Cd-resistant (WI-38 cells [6]): YES
- Assay 2: Cadmium-resistant (WI-38 cells [6]): YES
- A = Cadmium resistant (WI-38 cells [6]; [14]): 0
- A = Cadmium resistant (WI-38 cells [6]; summary score): 1
- C = H2O2- & Cd-resistant (WI-38 cells [6]; summary score): 1
- fold induction at 10 µM (WI-38 cells [7]; [17]): 0.96
- fold induction at 10 µM (WI-38 cells [7]; [18]): 2.21
- B = MMS resistant (WI-38 cells [7]; [14]): 0
- B = MMS resistant (WI-38 cells [7]; summary score): 0
- D = Triple resistant (WI-38 cells [7]; summary score): 0

Compound: O=C(Nc1ccc(Cl)c(Cl)c1)c1ccc([N+](=O)[O-])o1 [Gr-1G]
- PI cell-death imaging without H2O2 (indicating potential toxicity) (WI-38 cells [1]; Assay 8(k), without H2O2, at 10 uM): YES
- PI-positive dead cells under normal conditions (WI-38 cells [1]; WI-38, no H2O2, control 0.4±0.2%): 7.1%±1.1%
- M = Huntington's poly-Q toxicity attenuation [2]: 0
- K = Huntington's poly-Q toxicity attenuation [2]: 0
- D = Triple resistant [3]: 0
- S = Sum of Negative scores [3]: 1
- C = H2O2- & Cd-resistant [3]: 1
- Assay 7: H2O2-resistant, at 10 uM, validated by propidium iodide (PI) cell-death imaging (WI-38 cells [4]; 10 uM): YES
- cytotoxicity at 10 µM (WI-38 cells [4]; [11]): 34.4%
- Assay 6: H2O2-resistant, at 10 uM, human dermal fibroblast (HDF) primary cells [5]: YES
- L = PARP inhibition (human PARP1): 0
- CdCl2-resistant (WI-38 cells [6]): YES
- H2O2- & CdCl2-resistant (WI-38 cells [6]): YES
- fold induction at 10 µM (WI-38 cells [6]; [15]): 3.81
- fold induction at 10 µM (WI-38 cells [6]; [16]): 7.21
- CdCl2-resistant (WI-38 cells [6]; WI-38 cells, 10 μM): YES
- H2O2- & CdCl2-resistant (WI-38 cells [6]; WI-38 cells, 10 μM, both stressors): YES
- Assay 4: H2O2- & Cd-resistant (WI-38 cells [6]): YES
- Assay 2: Cadmium-resistant (WI-38 cells [6]): YES
- A = Cadmium resistant (WI-38 cells [6]; [14]): 1
- A = Cadmium resistant (WI-38 cells [6]; summary score): 1
- C = H2O2- & Cd-resistant (WI-38 cells [6]; summary score): 1
- fold induction at 10 µM (WI-38 cells [7]; [17]): 1.32
- fold induction at 10 µM (WI-38 cells [7]; [18]): 1.89
- B = MMS resistant (WI-38 cells [7]; [14]): 0
- B = MMS resistant (WI-38 cells [7]; summary score): 0
- D = Triple resistant (WI-38 cells [7]; summary score): 0

Compound: O=C(NCc1cccnc1)/C(=C/c1ccc(-c2ccc(Cl)cc2)o1)S(=O)(=O)c1ccccc1 [Gr-7C]
- Viability of PC12 cells upon induction of toxic poly(Q)103-Htt-EGFP aggregates ([2]; 2.5 μM, 5 μM, 10 μM and 20 μM): consistently increased the viability
- Assay 20: Huntington's poly-Q toxicity attenuation ([2]; 10 uM, YES/NO): YES
- M = Huntington's poly-Q toxicity attenuation [2]: 1
- K = Huntington's poly-Q toxicity attenuation [2]: 1
- D = Triple resistant [3]: 0
- S = Sum of Negative scores [3]: 1
- C = H2O2- & Cd-resistant [3]: 0
- Assay 7: H2O2-resistant, at 10 uM, validated by propidium iodide (PI) cell-death imaging (WI-38 cells [4]; 10 uM): YES
- cytotoxicity at 10 µM (WI-38 cells [4]; [8]): 0.82%
- cytotoxicity at 10 µM (WI-38 cells [4]; [9]): 2.36%
- cytotoxicity at 10 µM (WI-38 cells [4]; [10]): 3.73%
- cytotoxicity at 10 µM (WI-38 cells [4]; [11]): 12.5%
- fold induction at 10 µM [5, 12]: 0.074
- fold induction at 10 µM [5, 13]: 8.33
- Assay 6: H2O2-resistant, at 10 uM, human dermal fibroblast (HDF) primary cells [5]: YES
- L = PARP inhibition (human PARP1): 0
- fold induction at 10 µM (WI-38 cells [6]; [15]): 1.31
- fold induction at 10 µM (WI-38 cells [6]; [16]): 0.97
- Assay 4: H2O2- & Cd-resistant (WI-38 cells [6]): YES
- Assay 2: Cadmium-resistant (WI-38 cells [6]): YES
- A = Cadmium resistant (WI-38 cells [6]; [14]): 0
- A = Cadmium resistant (WI-38 cells [6]; summary score): 1
- C = H2O2- & Cd-resistant (WI-38 cells [6]; summary score): 1
- fold induction at 10 µM (WI-38 cells [7]; [17]): 1.14
- fold induction at 10 µM (WI-38 cells [7]; [18]): 1.39
- B = MMS resistant (WI-38 cells [7]; [14]): 0
- B = MMS resistant (WI-38 cells [7]; summary score): 0
- D = Triple resistant (WI-38 cells [7]; summary score): 0
